Measurements: ChEMBL document CHEMBL1201862, “PubChem BioAssay data set” (2004)
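Step 1: Grow cells in 96-well plates. Step 2: Expose to compound for 48 hours at 5 concentrations. Step 3: Interpolate endpoints linearly; if unreached, use highest concentration. Abbreviation: GI50, concentration required for 50% inhibition of growth.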 Calls of active or inactive are those of the source. Rule as the data show it: active = GI50 up to about 1.1 µM and inactive = higher.

Legend:
Experiment in all cases: NCI tumour cell line growth inhibition, 48 h
[1] = test system: 786-0
[2] = test system: A549
[3] = test system: ACHN
[4] = test system: BT-549
[5] = test system: CAKI-1
[6] = test system: CCRF-CEM
[7] = test system: COLO 205
[8] = test system: EKVX
[9] = test system: HCC 2998
[10] = test system: HCT-116
[11] = test system: HCT-15
[12] = test system: HOP-62
[13] = test system: HT-29
[14] = test system: Hs-578T
[15] = test system: K562
[16] = test system: KM12
[17] = test system: M14
[18] = test system: MCF7
[19] = test system: MDA-MB-435
[20] = test system: MDA-N
[21] = test system: MOLT-4
[22] = test system: Malme-3M
[23] = test system: NCI-H226
[24] = test system: NCI-H23
[25] = test system: NCI-H460
[26] = test system: NCI/ADR-RES
[27] = test system: OVCAR-3
[28] = test system: OVCAR-4
[29] = test system: OVCAR-5
[30] = test system: OVCAR-8
[31] = test system: PC-3
[32] = test system: RPMI-8226
[33] = test system: SF-268
[34] = test system: SF-295
[35] = test system: SF-539
[36] = test system: SK-MEL-28
[37] = test system: SK-MEL-2
[38] = test system: SK-OV-3
[39] = test system: SN12C
[40] = test system: SNB-19
[41] = test system: SNB-75
[42] = test system: SW-620
[43] = test system: T47D
[44] = test system: UACC-257
[45] = test system: UO-31
[46] = test system: DU-145
[47] = test system: HOP-92
[48] = test system: IGROV-1
[49] = test system: LOX IMVI
[50] = test system: MDA-MB-231
[51] = test system: NCI-H522
[52] = test system: RXF 393
[53] = test system: SK-MEL-5
[54] = test system: TK-10
[55] = test system: U-251
[56] = test system: UACC-62

O=[N+]([O-])/C(C(Cl)=C(Cl)Cl)=C(/Nc1cccc2cccnc12)n1nnc2ccccc21
GI50 [1]: 14.3 µM (inactive)
GI50 [2]: 27.3 µM (inactive)
GI50 [3]: 19.7 µM (inactive)
GI50 [4]: 14.2 µM (inactive)
GI50 [5]: 13.5 µM (inactive)
GI50 [6]: 2.88 µM (inactive)
GI50 [7]: 17.3 µM (inactive)
GI50 [8]: 24.4 µM (inactive)
GI50 [9]: 44.1 µM (inactive)
GI50 [10]: 19.3 µM (inactive)
GI50 [11]: 10.8 µM
GI50 [12]: 19.2 µM (inactive)
GI50 [13]: 17.7 µM (inactive)
GI50 [14]: 11.9 µM (inactive)
GI50 [15]: 6.41 µM (inactive)
GI50 [16]: 16 µM (inactive)
GI50 [17]: 12.2 µM (inactive)
GI50 [18]: 19.6 µM (inactive)
GI50 [19]: 15.9 µM (inactive)
GI50 [20]: 13.9 µM (inactive)
GI50 [21]: 3.57 µM (inactive)
GI50 [22]: 6.85 µM (inactive)
GI50 [23]: 23.2 µM (inactive)
GI50 [24]: 15.5 µM (inactive)
GI50 [25]: 31.3 µM (inactive)
GI50 [26]: 21.8 µM (inactive)
GI50 [27]: 8.18 µM (inactive)
GI50 [28]: 17.2 µM (inactive)
GI50 [29]: 21.6 µM (inactive)
GI50 [30]: 13.8 µM (inactive)
GI50 [31]: 19.2 µM (inactive)
GI50 [32]: 24.5 µM (inactive)
GI50 [33]: 16.5 µM (inactive)
GI50 [34]: 17.9 µM (inactive)
GI50 [35]: 13.4 µM (inactive)
GI50 [36]: 18.4 µM (inactive)
GI50 [37]: 15.3 µM (inactive)
GI50 [38]: 15.9 µM (inactive)
GI50 [39]: 16.3 µM (inactive)
GI50 [40]: 16.9 µM (inactive)
GI50 [41]: 19.4 µM (inactive)
GI50 [42]: 15.8 µM (inactive)
GI50 [43]: 19 µM (inactive)
GI50 [44]: 30.3 µM (inactive)
GI50 [45]: 15.8 µM (inactive)

Brc1cccc(Nc2ncnc3sc4c(c23)CCC(Nc2cccc(Br)c2)C4)c1 (stereo not drawn)
GI50 [1]: > 100 µM (inactive)
GI50 [2]: > 100 µM (inactive)
GI50 [3]: > 100 µM (inactive)
GI50 [4]: > 100 µM (inactive)
GI50 [5]: 79.8 µM (inactive)
GI50 [6]: > 100 µM (inactive)
GI50 [7]: > 100 µM (inactive)
GI50 [46]: > 100 µM (inactive)
GI50 [8]: > 100 µM (inactive)
GI50 [9]: > 100 µM (inactive)
GI50 [10]: > 100 µM (inactive)
GI50 [11]: > 100 µM
GI50 [12]: > 100 µM (inactive)
GI50 [47]: 26.2 µM (inactive)
GI50 [13]: > 100 µM (inactive)
GI50 [14]: > 100 µM (inactive)
GI50 [48]: 71.3 µM (inactive)
GI50 [15]: > 100 µM (inactive)
GI50 [16]: > 100 µM (inactive)
GI50 [49]: > 100 µM (inactive)
GI50 [17]: > 100 µM (inactive)
GI50 [18]: 83.8 µM (inactive)
GI50 [50]: > 100 µM (inactive)
GI50 [19]: > 100 µM (inactive)
GI50 [20]: > 100 µM (inactive)
GI50 [21]: > 100 µM (inactive)
GI50 [22]: > 100 µM (inactive)
GI50 [24]: > 100 µM (inactive)
GI50 [25]: > 100 µM (inactive)
GI50 [51]: > 100 µM (inactive)
GI50 [26]: > 100 µM (inactive)
GI50 [27]: > 100 µM (inactive)
GI50 [28]: > 100 µM (inactive)
GI50 [29]: > 100 µM (inactive)
GI50 [30]: > 100 µM (inactive)
GI50 [31]: > 100 µM (inactive)
GI50 [52]: > 100 µM (inactive)
GI50 [33]: > 100 µM (inactive)
GI50 [34]: > 100 µM (inactive)
GI50 [36]: > 100 µM (inactive)
GI50 [37]: > 100 µM (inactive)
GI50 [53]: > 100 µM (inactive)
GI50 [38]: > 100 µM (inactive)
GI50 [39]: > 100 µM (inactive)
GI50 [40]: > 100 µM (inactive)
GI50 [41]: 65.9 µM (inactive)
GI50 [42]: > 100 µM (inactive)
GI50 [43]: 6.55 µM (inactive)
GI50 [54]: > 100 µM (inactive)
GI50 [55]: > 100 µM (inactive)
GI50 [44]: > 100 µM (inactive)
GI50 [56]: > 100 µM (inactive)
GI50 [45]: > 100 µM (inactive)
